Measured values as given in ChEMBL document CHEMBL1201862, “PubChem BioAssay data set” (2004).
Activity calls are given as the source filed them. Square brackets hold non-standard residues; d marks the D form. Peptide text beside a SMILES is read from it. * marks the point of attachment. ξ: configuration not given here. Cbz = O=C(OCc1ccccc1)*; OBn = c1ccc(CO*)cc1; ξP = O=C(O)C1CCCN1

What was measured:
Cytochrome P450 2D6 = Cytochrome P450 2D6 (Homo sapiens, UniProt P10635);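 also: CYP2D6 member of a cytochrome P450 panel assay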
[1] = Luminescence Cell-Based Dose Confirmation HTS to Identify Activators of 5'UTR Stem-Loop Driven Alpha-Synuclein mRNA Translation in H4 Neuroglioblastoma Cells. [Related pubchem assays: 1829 (Project Summary), 1814 (Primary HTS)]; format: functional
[2] = Luminescence Cell-Based Dose Response HTS to Identify Activators of Luciferase Translation or Activity in H4 […] Cells. [Related pubchem assays: 1829 (Project Summary), 1814 (Primary HTS)]; format: functional
H4 = assay: Luminescence Cell-Based Dose Response HTS to Identify Activators of 5'UTR Stem-Loop Driven Prion Protein mRNA Translation in H4 Neuroglioblastoma Cells. [Related pubchem assays: 1829 (Project Summary), 1814 (Primary HTS)]; format: functional; details: Homo sapiens
Cytochrome P450 2C19 = Cytochrome P450 2C19 (Homo sapiens, UniProt P33261); assay: Cytochrome panel assay with activity outcomes. Panel member name: p450-cyp2c19 Compounds with AC50 equal or less than 10 uM are considered active; format: functional
Cytochrome P450 1A2 = molecular target: T1, Cytochrome P450 1A2 (Homo sapiens, UniProt P05177);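 also: PubChem cytochrome P450 panel assay, CYP1A2 panel member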
T1 sequence (P05177 whole entry): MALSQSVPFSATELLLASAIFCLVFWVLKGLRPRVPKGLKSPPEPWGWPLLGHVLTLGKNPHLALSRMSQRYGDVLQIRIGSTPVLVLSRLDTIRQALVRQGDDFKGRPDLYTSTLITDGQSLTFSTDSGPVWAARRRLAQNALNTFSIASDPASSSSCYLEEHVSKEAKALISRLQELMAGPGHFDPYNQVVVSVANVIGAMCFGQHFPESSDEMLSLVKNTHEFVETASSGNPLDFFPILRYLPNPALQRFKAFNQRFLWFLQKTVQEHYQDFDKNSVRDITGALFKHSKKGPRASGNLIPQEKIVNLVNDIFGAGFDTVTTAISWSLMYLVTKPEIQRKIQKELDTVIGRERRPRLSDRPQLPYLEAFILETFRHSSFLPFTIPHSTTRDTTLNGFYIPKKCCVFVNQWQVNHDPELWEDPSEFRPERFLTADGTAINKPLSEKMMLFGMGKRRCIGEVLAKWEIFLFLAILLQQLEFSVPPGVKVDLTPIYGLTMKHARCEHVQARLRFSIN

Cytochrome P450 3A4 = Cytochrome P450 3A4 (Homo sapiens, UniProt P08684);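 also: CYP3A4 tested as one member of a cytochrome P450 panel screen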
Protein RecA = molecular target: T2, Protein RecA (Mycobacterium tuberculosis, UniProt P9WHJ3); assay: Fluorescence Cell-Free Homogeneous Dose Retest to Identify Inhibitors of RecA-Intein Splicing Activity. [Related pubchem assays (depositor defined):AID2097, AID2223, AID489010, AID492950]; format: functional
T2 sequence (P9WHJ3 whole entry): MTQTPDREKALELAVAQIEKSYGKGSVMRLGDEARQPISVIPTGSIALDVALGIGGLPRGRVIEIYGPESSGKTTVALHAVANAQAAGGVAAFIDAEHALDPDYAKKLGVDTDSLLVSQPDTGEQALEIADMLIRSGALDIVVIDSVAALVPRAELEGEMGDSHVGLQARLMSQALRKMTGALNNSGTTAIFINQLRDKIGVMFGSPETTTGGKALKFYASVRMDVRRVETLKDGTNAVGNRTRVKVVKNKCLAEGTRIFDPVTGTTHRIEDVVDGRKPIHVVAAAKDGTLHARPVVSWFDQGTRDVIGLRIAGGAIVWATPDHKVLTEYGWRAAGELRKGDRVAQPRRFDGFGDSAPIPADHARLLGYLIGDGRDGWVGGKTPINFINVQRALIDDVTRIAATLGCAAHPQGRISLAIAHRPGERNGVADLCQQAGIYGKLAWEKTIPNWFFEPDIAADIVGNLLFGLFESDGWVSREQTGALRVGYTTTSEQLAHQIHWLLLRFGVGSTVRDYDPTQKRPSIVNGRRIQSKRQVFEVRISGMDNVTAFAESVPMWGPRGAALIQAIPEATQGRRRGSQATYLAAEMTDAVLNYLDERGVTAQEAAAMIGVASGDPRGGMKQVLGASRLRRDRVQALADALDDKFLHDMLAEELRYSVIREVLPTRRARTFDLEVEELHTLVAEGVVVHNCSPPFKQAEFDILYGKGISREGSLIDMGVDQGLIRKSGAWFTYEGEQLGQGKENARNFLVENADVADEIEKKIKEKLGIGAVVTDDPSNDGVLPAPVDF

[3] = molecular target: T3, Corticotropin-releasing factor receptor 2/Corticotropin-releasing factor-binding protein (Homo sapiens, UniProt P24387+Q13324); assay: Dose Response confirmation of uHTS hits for small molecule antagonists of the CRF-binding protein and CRF-R2 receptor complex.; format: functional; details: read-out: IC50_Mean
T3 sequence (Q13324 whole entry): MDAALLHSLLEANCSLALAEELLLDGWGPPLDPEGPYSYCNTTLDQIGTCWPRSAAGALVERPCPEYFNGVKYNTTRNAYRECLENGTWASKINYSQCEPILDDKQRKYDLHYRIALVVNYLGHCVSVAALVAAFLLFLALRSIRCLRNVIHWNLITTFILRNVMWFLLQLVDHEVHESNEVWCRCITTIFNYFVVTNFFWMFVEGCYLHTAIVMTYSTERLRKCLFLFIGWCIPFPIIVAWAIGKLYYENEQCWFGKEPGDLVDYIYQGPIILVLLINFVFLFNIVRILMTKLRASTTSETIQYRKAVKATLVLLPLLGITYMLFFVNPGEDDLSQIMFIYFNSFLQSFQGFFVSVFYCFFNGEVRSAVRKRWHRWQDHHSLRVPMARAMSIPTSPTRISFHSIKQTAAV
T3 sequence (P24387 whole entry): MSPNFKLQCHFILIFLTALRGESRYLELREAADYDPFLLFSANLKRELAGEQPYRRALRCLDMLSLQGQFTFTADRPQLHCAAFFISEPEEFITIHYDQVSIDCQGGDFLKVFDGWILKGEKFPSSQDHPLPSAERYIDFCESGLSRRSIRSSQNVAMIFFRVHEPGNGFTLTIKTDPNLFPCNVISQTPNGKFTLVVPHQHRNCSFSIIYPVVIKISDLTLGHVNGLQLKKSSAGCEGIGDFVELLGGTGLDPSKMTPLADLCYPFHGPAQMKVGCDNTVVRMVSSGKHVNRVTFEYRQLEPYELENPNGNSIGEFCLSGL

[4] = molecular target: T3, Corticotropin-releasing factor receptor 2/Corticotropin-releasing factor-binding protein; assay: activators of CRF receptor 2 with binding protein – uHTS hits, confirmation (AID 602473); format: functional; details: read-out: EC50_Mean
Cytochrome P450 2C9 = Cytochrome P450 2C9 (Homo sapiens, UniProt P11712)
Chain of Cytochrome P450 2C9 (P11712 whole entry): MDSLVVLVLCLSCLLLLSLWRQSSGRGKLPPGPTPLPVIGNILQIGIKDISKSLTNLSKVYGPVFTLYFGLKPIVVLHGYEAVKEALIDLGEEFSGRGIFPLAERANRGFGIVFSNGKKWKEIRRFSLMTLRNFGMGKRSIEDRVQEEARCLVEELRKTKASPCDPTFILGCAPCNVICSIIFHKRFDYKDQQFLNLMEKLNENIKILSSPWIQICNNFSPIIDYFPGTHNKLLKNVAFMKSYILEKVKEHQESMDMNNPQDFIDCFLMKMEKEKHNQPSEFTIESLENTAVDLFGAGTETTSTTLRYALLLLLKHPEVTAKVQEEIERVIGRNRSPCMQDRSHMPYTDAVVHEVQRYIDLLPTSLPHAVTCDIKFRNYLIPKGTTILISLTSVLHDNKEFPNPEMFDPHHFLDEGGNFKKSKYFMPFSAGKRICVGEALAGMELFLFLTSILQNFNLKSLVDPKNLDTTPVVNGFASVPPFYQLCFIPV

Chain of Cytochrome P450 2D6 (P10635 whole entry): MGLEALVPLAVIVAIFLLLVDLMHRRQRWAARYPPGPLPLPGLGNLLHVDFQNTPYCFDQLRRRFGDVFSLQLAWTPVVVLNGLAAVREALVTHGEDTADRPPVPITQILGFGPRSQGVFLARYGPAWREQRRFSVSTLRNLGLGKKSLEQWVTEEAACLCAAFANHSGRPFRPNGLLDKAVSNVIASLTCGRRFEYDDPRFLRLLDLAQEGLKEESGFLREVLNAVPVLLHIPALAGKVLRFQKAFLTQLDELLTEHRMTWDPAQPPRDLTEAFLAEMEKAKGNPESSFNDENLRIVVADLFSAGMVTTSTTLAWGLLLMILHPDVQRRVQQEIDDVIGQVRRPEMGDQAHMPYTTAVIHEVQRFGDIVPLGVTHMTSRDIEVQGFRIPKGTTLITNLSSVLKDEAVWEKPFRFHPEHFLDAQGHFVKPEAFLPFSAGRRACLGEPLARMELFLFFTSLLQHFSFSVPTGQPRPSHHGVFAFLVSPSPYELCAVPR
Chain of Cytochrome P450 2C19 (P33261 whole entry): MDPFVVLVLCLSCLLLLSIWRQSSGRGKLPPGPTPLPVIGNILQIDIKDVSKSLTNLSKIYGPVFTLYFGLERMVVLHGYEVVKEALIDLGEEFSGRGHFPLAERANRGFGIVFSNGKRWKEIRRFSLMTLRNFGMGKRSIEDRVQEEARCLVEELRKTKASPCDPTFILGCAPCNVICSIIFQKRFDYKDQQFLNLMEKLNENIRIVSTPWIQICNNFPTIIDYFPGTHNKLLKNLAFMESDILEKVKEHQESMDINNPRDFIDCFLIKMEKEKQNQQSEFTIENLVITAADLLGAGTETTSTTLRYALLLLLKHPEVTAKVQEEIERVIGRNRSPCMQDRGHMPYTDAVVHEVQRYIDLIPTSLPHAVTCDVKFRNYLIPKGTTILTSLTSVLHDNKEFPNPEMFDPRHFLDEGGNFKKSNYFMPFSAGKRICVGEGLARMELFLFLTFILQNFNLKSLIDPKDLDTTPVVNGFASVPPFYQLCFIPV
Chain of Cytochrome P450 3A4 (P08684 whole entry): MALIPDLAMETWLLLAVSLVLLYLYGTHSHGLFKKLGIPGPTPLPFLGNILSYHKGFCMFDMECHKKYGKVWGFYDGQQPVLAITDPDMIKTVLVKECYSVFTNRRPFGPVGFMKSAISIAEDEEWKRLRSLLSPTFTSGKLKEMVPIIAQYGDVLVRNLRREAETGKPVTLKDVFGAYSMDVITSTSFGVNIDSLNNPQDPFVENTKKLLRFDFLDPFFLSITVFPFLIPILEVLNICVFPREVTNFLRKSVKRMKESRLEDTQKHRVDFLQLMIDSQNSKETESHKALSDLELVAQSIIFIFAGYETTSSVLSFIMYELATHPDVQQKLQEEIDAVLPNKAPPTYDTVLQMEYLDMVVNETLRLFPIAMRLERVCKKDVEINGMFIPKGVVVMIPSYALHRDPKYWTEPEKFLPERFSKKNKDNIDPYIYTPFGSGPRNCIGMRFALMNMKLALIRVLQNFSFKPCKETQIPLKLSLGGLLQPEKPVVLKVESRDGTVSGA

Cc1noc(C)c1C(=O)N1CCC2(CC1)CCN(C(c1ccccc1)c1ccccc1)CC2
AC50 (Cytochrome P450 2D6): 25.1 µM (inconclusive)

COc1ccc(C2C(C#N)=C(N)Nc3nc4ccccc4n32)cc1 (centres undefined)
EC50 [1]: 12.1 µM (active)
EC50 [2]: 16.7 µM (active)
EC50 (H4): 32.9 µM (active)

CCN1CCN(c2nc3c(c(=O)[nH]c(=O)n3C)n2CCCSc2ncccn2)CC1
AC50 (Cytochrome P450 2C19): inconclusive

Clc1ccc2c(N[C@H]3CC[C@H](N4CCCCC4)CC3)ccnc2c1
AC50 (Cytochrome P450 2C19): inconclusive
AC50 (Cytochrome P450 2D6): 3.98 µM (inconclusive)

COC(=O)[C@@]1(Cc2ccccc2)[C@H]2c3cc(C(=O)N4CCCC4)n(Cc4ccc(C)o4)c3C[C@H]2CN1C(=O)c1ccccc1
AC50 (Cytochrome P450 2D6): 39.8 µM (inconclusive)
AC50 (Cytochrome P450 1A2): 12.6 µM (inconclusive)

Cc1cc(O)c(C(C)C)cc1CN1CCCCC1
AC50 (Cytochrome P450 2D6): 3.98 µM (inconclusive)
AC50 (Cytochrome P450 1A2): 1 µM (inconclusive)

Cc1nc(-c2cccc(NC(=O)c3cc4cc(Br)ccc4oc3=O)c2)cs1
AC50 (Cytochrome P450 2C19; read-out: AC50): 20 µM (inconclusive)
AC50 (Cytochrome P450 1A2): 8.91 µM (inconclusive)
AC50 (Cytochrome P450 3A4): 10 µM (inconclusive)

COCCNC(=O)CCn1c(=O)oc2ccccc21
AC50 (Cytochrome P450 2C19; read-out: AC50): 1.41 µM (inconclusive)

Cc1nc2nc(NC(=O)c3ccco3)nn2c(C)c1Cl
EC50 [1]: 0.817 µM (active)
EC50 [2]: 14.3 µM (active)
EC50 (H4): 15.5 µM (active)

O=C(Nc1ccc2c(c1)OCCO2)c1cc2sccc2n1Cc1ccc(F)cc1
EC50 [1]: 0.94 µM (active)
EC50 [2]: 3.85 µM (active)
EC50 (H4): > 120 µM (not active)

O=C(Nc1ccccc1)N1CCCC2(CCN(C(=O)Oc3ccccc3)CC2)C1
AC50 (Cytochrome P450 2D6): 20 µM (inconclusive)
AC50 (Cytochrome P450 1A2): 25.1 µM (inconclusive)

CC(C)CS(=O)(=O)C1=NN2C(=N)/C(=C\c3ccc(OC(=O)c4ccco4)cc3)C(=O)N=C2S1
EC50 (Protein RecA): 14.4 µM (active)

COc1ccc(Cc2c(N)nc(N)nc2N)cc1
AC50 (Cytochrome P450 2D6): 17.8 µM (inconclusive)

O=C(Nc1nnc(S(=O)(=O)N2CCOCC2)s1)c1cccc(F)c1
EC50 [1]: 17.8 µM (active)
EC50 [2]: 9.48 µM (active)
EC50 (H4): 14.6 µM (active)

COc1cc2c(cc1NC(=O)c1ccc3c(c1)OCO3)oc1ccccc12
EC50 [1]: 5.37 µM (active)
EC50 [2]: 43.1 µM (active)
EC50 (H4): 85.3 µM (active)

O=C(Nc1ccccc1)C(Cc1ccccc1)NC(=O)C12CC3CC(CC(C3)C1)C2 (centres undefined)
AC50 (Cytochrome P450 2D6): 0.00794 µM (inconclusive)

O=C1[C@H]2[C@H]3[C@H](O)[C@H](O)C/C(=N/OCc4ccccc4)[C@@H]3CC[C@@H]2C(=O)N1Cc1ccc2c(c1)OCO2
AC50 (Cytochrome P450 2C19; read-out: AC50): 3.98 µM (inconclusive)

CC1(O)c2ccccc2C(=O)N1CCc1ccccc1F (centres undefined)
IC50 [3]: > 47.1 µM (inactive)
EC50 [4]: > 53 µM (inactive)
AC50 (Cytochrome P450 2D6): 28.2 µM (inconclusive)
AC50 (Cytochrome P450 1A2): 20 µM (inconclusive)

O=C(O)CS(=O)(=O)C(c1ccccc1)c1ccccc1
AC50 (Cytochrome P450 2C19): inconclusive

CCOc1nc(NCc2ccco2)nc(Nc2ccccc2F)n1
EC50 [1]: 6.54 µM (active)
EC50 [2]: 12.9 µM (active)
EC50 (H4): 69.9 µM (active)

Cc1ccc2occ(/C=C/C(=O)O)c(=O)c2c1
AC50 (Cytochrome P450 2C19; read-out: AC50): 28.2 µM (inconclusive)
AC50 (Cytochrome P450 2D6): 15.8 µM (inconclusive)
AC50 (Cytochrome P450 3A4): 22.4 µM (inconclusive)
AC50 (Cytochrome P450 2C9): 25.1 µM (inconclusive)

c1ccc(N2CCCC3(CCNCC3)C2)cc1
AC50 (Cytochrome P450 2C19; read-out: AC50): 15.8 µM (inconclusive)
AC50 (Cytochrome P450 3A4): 25.1 µM (inconclusive)

Cc1ccc(C)c(C(=N)c2ccccc2Cc2ccccc2)c1
AC50 (Cytochrome P450 2D6): 3.16 µM (inconclusive)

O=C(NNS(=O)(=O)c1ccc(Cl)cc1)NC1CCCCC1
AC50 (Cytochrome P450 2C19; read-out: AC50): 10 µM (inconclusive)
AC50 (Cytochrome P450 2C9): 17.8 µM (inconclusive)

O=C(OCn1nnc2ccccc2c1=O)c1cccnc1
AC50 (Cytochrome P450 2C19; read-out: AC50): 25.1 µM (inconclusive)
AC50 (Cytochrome P450 1A2): 17.8 µM (inconclusive)
AC50 (Cytochrome P450 2C9): 25.1 µM (inconclusive)

CCC(=O)N1CCn2c1nc1ccccc12
AC50 (Cytochrome P450 2C19; read-out: AC50): 28.2 µM (inconclusive)
AC50 (Cytochrome P450 2C9): 1.41 µM (inconclusive)

C=CCSc1nnc2c(n1)OC(c1c(C)[nH]n(-c3ccccc3)c1=O)Nc1ccccc1-2 (centres undefined)
AC50 (Cytochrome P450 2C19; read-out: AC50): 8.91 µM (inconclusive)
AC50 (Cytochrome P450 2D6): 0.158 µM (inconclusive)
AC50 (Cytochrome P450 1A2): 15.8 µM (inconclusive)

FC(F)(F)c1nc2ccccc2nc1N/N=C\c1ccccc1
AC50 (Cytochrome P450 2C19; read-out: AC50): 39.8 µM (inconclusive)
AC50 (Cytochrome P450 2D6): 14.1 µM (inconclusive)
AC50 (Cytochrome P450 2C9): 20 µM (inconclusive)

O=C(N/N=C/c1ccc(N2CCOCC2)s1)c1ccccc1Cl
EC50 [1]: 20.9 µM (active)
EC50 [2]: 12 µM (active)
EC50 (H4): 48.6 µM (active)

CCCCc1[nH]nc2c1/C(=N/O)CC(c1ccccc1)C2 (centres undefined)
AC50 (Cytochrome P450 2D6): 14.1 µM (inconclusive)

COc1ccccc1CNc1ncnc2ccc(-c3cccc(NS(C)(=O)=O)c3)cc12
AC50 (Cytochrome P450 2D6): 20 µM (inconclusive)
AC50 (Cytochrome P450 2C9): 0.794 µM (inconclusive)

O=C(CNC(=O)OCc1ccccc1)NCC(=O)N1CCCC1C(=O)OCc1ccccc1 (stereo not drawn) (Cbz-Gly-Gly-[ξP]-OBn)
AC50 (Cytochrome P450 2C19; read-out: AC50): 0.0355 µM (inconclusive)
AC50 (Cytochrome P450 3A4): 17.8 µM (inconclusive)
